Converted amounts (≈) assume the structure as drawn. Read-outs that look alike come from different tables or passages of the source.
What was measured:
[1] = system: tested bacterial strains (Gram positive or Gram negative: S. aureus, P. aeruginosa, E. coli); experiment: Antibacterial MIC range over the tested bacterial strains; type: cell-based; conditions: range over Gram positive and Gram negative strains
Method: (§1) . Standard strains of Staphylococcus aureus (ATCC 6538), Pseudomonas aeruginosa (ATCC 10,145), and Escherichia coli (ATCC 8739) were obtained from microbiological resource center, Faculty of Agriculture, Ain Shams University, Cairo, Egypt. All isolates were maintained at -70 °C in Trypticase Soya Broth (TSB, Becton, and Dickinson) with 10% glycerol. Prior to inoculation, all isolates were subcultured at 37 °C for 24 h on Trypticase Soya Agar (TSA, Becton, and Dickinson) and TSB, respectively.
The plates were rotated slowly to ensure uniform distribution of the microorganisms and then allowed to solidify on a flat surface. After solidification, four equidistant and circular wells of 10 mm diameter were carefully punched using a sterile cork bore. Twofold serial dilutions of the tested compounds using DMSO were performed. An equal volume of 100µL of each dilution was applied separately to each well in three replicates using a micropipette. All plates were incubated at 37 °C for 24 h. The inhibition zones were measured, and their average was calculated. The MIC was calculated by plotting the natural logarithm of the concentration of each dilution of the tested compounds against the square of zones of inhibition, and a regression line was drawn through the points then the antilogarithm of the intercept on the logarithm of concentration axis gave the MIC value.

E. coli (ATCC 8739) = experiment: Antibacterial MIC, standard agar cup diffusion method; type: cell-based; conditions: Escherichia coli, ATCC8739, 37 °C, 24 h, read-out: MIC E. coli (Gram-negative)
Method: as §1, with “The antibacterial and antifungal activities of compounds, ketone 1, 2a-j, and 5a-i were evaluated in vitro against S. aureus (ATCC 6538), P. aeruginosa (ATCC 10,145), E. coli (ATCC 8739), and C. albicans (ATCC 10,231). […] Standard” for “. Standard”
(§2) The plates were rotated slowly to ensure uniform distribution of the microorganisms and then allowed to solidify on a flat surface. After solidification, four equidistant and circular wells of 10 mm diameter were carefully punched using a sterile cork bore. Twofold serial dilutions of the tested compounds using DMSO were performed. An equal volume of 100µL of each dilution was applied separately to each well in three replicates using a micropipette. All plates were incubated at 37 °C for 24 h. The inhibition zones were measured, and their average was calculated.

[2] = system: P. aeruginosa (ATCC 10,145); experiment: as above; type: cell-based; conditions: Pseudomonas aeruginosa, ATCC 10145, 37 °C, 24 h, read-out: MIC P. aeruginosa (Gram-negative)
Method: as §1, with “The antibacterial and antifungal activities of compounds, ketone 1, 2a-j, and 5a-i were evaluated in vitro against S. aureus (ATCC 6538), P. aeruginosa (ATCC 10,145), E. coli (ATCC 8739), and C. albicans (ATCC 10,231). […] Standard” for “. Standard”
as §2

S. aureus (ATCC 6538) = experiment: as above; type: cell-based, Staphylococcus aureus; conditions: Staphylococcus aureus, ATCC6538, 37 °C, 24 h, read-out: MIC S. aureus (Gram-positive)
Method: as §1, with “The antibacterial and antifungal activities of compounds, ketone 1, 2a-j, and 5a-i were evaluated in vitro against S. aureus (ATCC 6538), P. aeruginosa (ATCC 10,145), E. coli (ATCC 8739), and C. albicans (ATCC 10,231). […] Standard” for “. Standard”
as §2

S. aureus DNA gyrase = S. aureus DNA gyrase (Staphylococcus aureus, UniProt P0A0K8+P20831); experiment: Staphylococcus aureus DNA gyrase supercoiling assay; type: biochemical; conditions: supercoiling of relaxed pBR322, 37 °C, 30 min; read-out: S. aureus DNA gyrase IC50 ± SD
Chain of S. aureus DNA gyrase (P20831 whole entry): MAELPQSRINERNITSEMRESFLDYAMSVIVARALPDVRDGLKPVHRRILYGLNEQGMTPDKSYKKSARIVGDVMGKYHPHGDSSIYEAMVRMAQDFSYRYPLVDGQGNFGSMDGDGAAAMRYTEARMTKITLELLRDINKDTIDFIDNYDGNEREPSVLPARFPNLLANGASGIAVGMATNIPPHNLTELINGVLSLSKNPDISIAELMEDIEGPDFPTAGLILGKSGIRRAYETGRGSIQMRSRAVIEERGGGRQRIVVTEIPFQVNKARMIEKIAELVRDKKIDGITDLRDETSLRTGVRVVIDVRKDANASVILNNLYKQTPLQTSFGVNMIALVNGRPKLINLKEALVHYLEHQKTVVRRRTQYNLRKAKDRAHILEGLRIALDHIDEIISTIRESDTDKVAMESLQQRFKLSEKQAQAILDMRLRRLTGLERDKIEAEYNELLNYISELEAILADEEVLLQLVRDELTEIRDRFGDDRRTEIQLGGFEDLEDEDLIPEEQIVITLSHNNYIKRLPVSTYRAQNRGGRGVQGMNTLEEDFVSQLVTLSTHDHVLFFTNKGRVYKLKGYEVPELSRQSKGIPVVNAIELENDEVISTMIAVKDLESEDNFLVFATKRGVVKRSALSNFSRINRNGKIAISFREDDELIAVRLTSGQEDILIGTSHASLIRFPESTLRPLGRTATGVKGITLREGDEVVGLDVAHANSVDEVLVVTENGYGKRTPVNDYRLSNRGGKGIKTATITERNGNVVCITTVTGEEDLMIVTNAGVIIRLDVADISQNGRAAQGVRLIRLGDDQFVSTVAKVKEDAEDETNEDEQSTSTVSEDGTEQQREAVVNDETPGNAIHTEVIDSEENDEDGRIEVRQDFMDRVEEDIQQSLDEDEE
Chain of S. aureus DNA gyrase (P0A0K8 whole entry): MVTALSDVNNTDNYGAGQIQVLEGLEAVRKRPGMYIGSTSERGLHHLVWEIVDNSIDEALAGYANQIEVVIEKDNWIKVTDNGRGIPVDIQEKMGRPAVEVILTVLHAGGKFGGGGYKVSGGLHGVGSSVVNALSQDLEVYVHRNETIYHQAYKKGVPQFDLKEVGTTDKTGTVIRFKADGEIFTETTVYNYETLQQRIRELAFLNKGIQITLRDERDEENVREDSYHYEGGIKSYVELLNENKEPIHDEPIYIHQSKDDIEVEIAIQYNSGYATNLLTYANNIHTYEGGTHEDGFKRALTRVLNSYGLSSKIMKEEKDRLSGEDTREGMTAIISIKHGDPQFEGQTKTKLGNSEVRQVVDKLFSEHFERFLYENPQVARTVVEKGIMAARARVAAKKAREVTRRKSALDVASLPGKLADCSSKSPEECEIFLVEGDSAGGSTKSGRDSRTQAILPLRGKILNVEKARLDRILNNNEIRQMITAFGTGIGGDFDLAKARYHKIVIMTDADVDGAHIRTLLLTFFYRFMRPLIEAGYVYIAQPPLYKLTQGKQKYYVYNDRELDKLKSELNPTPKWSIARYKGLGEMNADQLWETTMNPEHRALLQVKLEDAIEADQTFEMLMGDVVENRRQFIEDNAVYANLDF
Method: As antibacterial agents, fluoroquinolones act by targeting and inhibiting DNA gyrase (topo II) which is an essential enzyme involved in the DNA replication process.
Staphylococcus aureus DNA gyrase was incubated at 37 °C for 30 min in a total reaction volume of 30 μl containing 40 mM HEPES. KOH (pH 7.6), 10 mM magnesium acetate, 10 mM DTT, 2 mM ATP, 500 mM potassium glutamate, 0.05 mg/ml albumin and Relaxed pBR322. DNA gyrase supercoiling reactions catalyzed by S. aureus gyrase, Stop reaction by adding 30 μL of STEB and 30 μL of chloroform/isoamyl alcohol (v:v, 24:1),and then Vortex briefly ~ 5 secs and centrifuge for 1 min. after which 20 µL of this was loaded on a 1% agarose gel that was then run at ~ 75 V for approximately 2 h. The gel was stained by (0.5 mg/L) ethidium bromide in water. Fluorescent images were taken at a wavelength of 300 nm on a UV transilluminator imaging system. The fluorescence intensity of the supercoiled plasmid reaction product was quantitated using ImagQuant software (Molecular Dynamics).

[3] = system: C. albicans (ATCC 10,231); experiment: Antifungal MIC, agar cup diffusion method; type: cell-based, Candida albicans; conditions: Sabouraud agar, 37 °C; for MIC: Candida albicans, ATCC 10,231, 24 h, read-out: MIC C. albicans (Fungi)
Method: The antibacterial and antifungal activities of compounds, ketone 1, 2a-j, and 5a-i were evaluated in vitro against S. aureus (ATCC 6538), P. aeruginosa (ATCC 10,145), E. coli (ATCC 8739), and C. albicans (ATCC 10,231). […] The antifungal activity of compounds 1, 2a-j, and 5a-i and ketoconazole were determined according to the agar cup diffusion method at Deraya University, Faculty of Pharmacy, Department of Microbiology.
Fungal strains and culture conditions. […] Standard strain of Candida albicans (ATCC 10,231) was obtained from microbiological resource center, Faculty of Agriculture, Ain Shams University, Cairo, Egypt. The isolate was maintained at -70 °C in Trypticase Soya Broth (TSB, Becton, and Dickinson) with 10% glycerol. Prior to inoculation, the isolate was subcultured at 37 °C for 24 h on Trypticase Soya Agar (TSA, Becton, and Dickinson) and TSB, respectively.
as §2

[4] = system: fluoroquinolones, vancomycin, and/or linezolid-resistant strains; conditions: cited from earlier work
[5] = system: Gram negative and Gram positive; set-up: method as in PMID 14623004; conditions: cited from earlier work
[6] = Solubility determination in phosphate buffer; type: physicochemical; conditions: aqueous buffer, thermodynamic from solid
Method: A sample of drug was accurately weighed and dissolved in 100 ml of distilled water to prepare 100 mcg/ml stock solutions. Appropriate dilution of the stock solution with phosphate buffer pH 6.8 and 7.8 was then made to prepare a working solution of 40mcg/ml.
After determination of λ max of drug, a calibration curve was constructed by preparing solutions containing different concentrations of (1–5 mcg/ml) from stock solution after appropriate dilution with phosphate buffer pH 6.8. The UV absorbance of the prepared sample solutions were measured at the predetermined λ max using phosphate buffer pH 6.8 as a blank.
Aqueous solubility of the complexes was measured as a function of pH. An excess of each derivative was placed into suitable stoppered containers. […] The samples were immersed in a water bath thermostatized at 37 ± 1^◦C and 100 rpm and periodically shaken for 48 h. Once the equilibrium was reached, the pH of the supernatant was regarded.

physchem = conditions: pH 7.8
Method: The n-octanol/water apparent partition coefficient at the isoelectric point (or distribution constant) was measured by using the traditional shake-flask technique. The pH of the aqueous buffer was first adjusted to isoelectric point of the compound. The n-octanol and aqueous phases were then mutually saturated before the measurement. […] The samples were agitated for 5h at water bath shaker thermostatized at 25 ± 1^◦C and 100 rpm. The concentration of the solute was determined in the aqueous and organic phases at the isoelectric point by UV spectroscopy the log p value was calculated as follows: […].

[7] = system: all tested strains, either Gram-positive or Gram-negative pathogens; set-up: method as in doi:10.1016/j.cclet.2016.12.012, doi:10.1515/hc-2016-0125; conditions: reference drug; cited from earlier work
Gram-negative pathogens = system: Gram-negative pathogens; set-up: method as in doi:10.1016/j.cclet.2016.12.012, doi:10.1515/hc-2016-0125; conditions: cited from earlier work
Gram-positive pathogens = system: Gram-positive pathogens; set-up: method as in doi:10.1016/j.cclet.2016.12.012, doi:10.1515/hc-2016-0125; conditions: cited from earlier work
[8] = phosphate buffer pH 6.8, 37 °C, read-out: Solubility pH 6.8
[9] = phosphate buffer pH 7.8, 37 °C, read-out: Solubility pH 7.8

| SMILES | MIC range against the tested bacterial strains [1] | MIC (E. coli (ATCC 8739)) | MIC [2] | MIC (S. aureus (ATCC 6538)) | melting point | IC50 (S. aureus DNA gyrase) | MIC [3] | MIC range [4] | MIC range [5] | solubility at 48 h [6, 8] | solubility at 48 h [6, 9] | MIC C. albicans (Fungi) ([3]; 24 h) | logD (physchem) | MIC [7] | MIC (Gram-negative pathogens) | MIC (Gram-positive pathogens) |
| --- | --- | --- | --- | --- | --- | --- | --- | --- | --- | --- | --- | --- | --- | --- | --- | --- |
| O=C(O)c1cn(C2CC2)c2cc(N3CCNCC3)c(F)cc2c1=O [Ciprofloxacin, reference compound] | 0.15 to 3.25 µg/mL | 0.15 µg/mL (≈ 0.453 µM) | 0.22 µg/mL (≈ 0.664 µM) | 3.25 µg/mL (≈ 9.81 µM) | – | – | – | – | – | – | – | – | – | – | – | – |
| COc1cc(-c2nc(SCC(=O)N3CCN(c4cc5c(cc4F)c(=O)c(C(=O)O)cn5C4CC4)CC3)[nH]c(=O)c2C#N)cc(OC)c1OC [Compound 5i, 7-(4-(2-((5-Cyano-6-oxo-4-(3,4,5-trimethoxyphenyl)-1,6-dihydropyrimidin-2-yl)thio)acetyl)piperazin-1-yl)-1-cyclopropyl-6-fluoro-4-oxo-1,4-dihydroquinoline-3-carboxylic acid] | 0.06 to 1.53 µg/mL | 0.63 µg/mL (≈ 0.912 µM) | 0.13 µg/mL (≈ 0.188 µM) | 0.74 µg/mL (≈ 1.07 µM) | 284 to 285 °C | 1.41 ± 0.07 µM | > 100 µg/mL | – | – | – | – | – | – | – | – | – |
| CC(=O)NC[C@H]1CN(c2ccc(N3CCN(c4cc5c(cc4F)c(=O)c(C(=O)O)cn5C4CC4)CC3)c(F)c2)C(=O)O1 [hybrid II] | – | – | – | – | – | – | – | 0.25 to 0.5 µg/mL | 0.125 to 4 µg/mL | – | – | – | – | – | – | – |
| COc1ccc(-c2nc(SCC(=O)N3CCN(c4cc5c(cc4F)c(=O)c(C(=O)O)cn5C4CC4)CC3)[nH]c(=O)c2C#N)cc1OC [Compound 5h, 7-(4-(2-((5-Cyano-4-(3,4-dimethoxyphenyl)-6-oxo-1,6-dihydropyrimidin-2-yl)thio)acetyl)piperazin-1-yl)-1-cyclopropyl-6-fluoro-4-oxo-1,4-dihydroquinoline-3-carboxylic acid] | 0.06 to 1.53 µg/mL | 0.21 µg/mL (≈ 0.318 µM) | 0.49 µg/mL (≈ 0.742 µM) | 0.34 µg/mL (≈ 0.515 µM) | 266 to 269 °C | 1.46 ± 0.08 µM | 28.7 µg/mL (≈ 43.5 µM) | – | – | – | – | – | – | – | – | – |
| O=C(/C=C/c1ccc(Cl)cc1)c1ccc(NC(=O)N2CCN(c3cc4c(cc3F)c(=O)c(C(=O)O)cn4C3CC3)CC2)cc1 [Compound 2c] | 0.06 to 1.53 µg/mL | 0.34 µg/mL (≈ 0.553 µM) | 1.03 µg/mL (≈ 1.67 µM) | 0.67 µg/mL (≈ 1.09 µM) | – | 3 ± 0.16 µM | 2.03 to 3.89 µg/mL (≈ 3.3 to 6.32 µM) | – | – | 130 µg/mL (≈ 211 µM) | 150 µg/mL (≈ 244 µM) | 3.89 µg/mL (≈ 6.32 µM) | 0.07 | – | – | – |
| CC1(C)S[C@@H]2[C@H](NC(=O)[C@H](N)c3ccccc3)C(=O)N2[C@H]1C(=O)O [ampicillin] | – | – | – | – | – | – | – | – | – | – | – | – | – | 3.9 to 250 µg/mL | – | – |
| N#Cc1c(-c2ccccc2)nc(SCC(=O)N2CCN(c3cc4c(cc3F)c(=O)c(C(=O)O)cn4C3CC3)CC2)[nH]c1=O [Compound 5a, 7-(4-(2-((5-Cyano-6-oxo-4-phenyl-1,6-dihydropyrimidin-2-yl)thio)acetyl)piperazin-1-yl)-1-cyclopropyl-6-fluoro-4-oxo-1,4-dihydroquinoline-3-carboxylic acid] | 0.06 to 1.53 µg/mL | 0.91 µg/mL (≈ 1.52 µM) | 1.53 µg/mL (≈ 2.55 µM) | 0.36 µg/mL (≈ 0.599 µM) | 237 to 240 °C | 4.55 ± 0.24 µM | 6.23 µg/mL (≈ 10.4 µM) | – | – | – | – | – | – | – | – | – |
| O=C(/C=C/c1cccc(Cl)c1)c1ccc(NC(=O)N2CCN(c3cc4c(cc3F)c(=O)c(C(=O)O)cn4C3CC3)CC2)cc1 [Compound 2b] | 0.06 to 1.53 µg/mL | 0.18 µg/mL (≈ 0.293 µM) | 0.64 µg/mL (≈ 1.04 µM) | 0.06 µg/mL (≈ 0.0976 µM) | – | 0.231 ± 0.01 µM | 15.2 µg/mL (≈ 24.8 µM) | – | – | 160 µg/mL (≈ 260 µM) | 180 µg/mL (≈ 293 µM) | – | 0.31 | – | – | – |
| COc1cccc(-c2nn(CN3CCN(c4cc5c(cc4F)c(=O)c(C(=O)O)cn5C4CC4)CC3)c(=S)n2Cc2ccc(Br)cc2Cl)c1 [hybrid I] | – | – | – | – | – | – | – | – | – | – | – | – | – | – | 0.01 to 1.32 µg/mL | < 0.24 µg/mL |
| N#Cc1c(-c2cccc(Cl)c2)nc(SCC(=O)N2CCN(c3cc4c(cc3F)c(=O)c(C(=O)O)cn4C3CC3)CC2)[nH]c1=O [Compound 5b, 7-(4-(2-((4-(3-Chlorophenyl)-5-cyano-6-oxo-1,6-dihydropyrimidin-2-yl)thio)acetyl)piperazin-1-yl)-1-cyclopropyl-6-fluoro-4-oxo-1,4-dihydroquinoline-3-carboxylic acid] | 0.06 to 1.53 µg/mL | 0.12 µg/mL (≈ 0.189 µM) | 0.19 µg/mL (≈ 0.299 µM) | 0.7 µg/mL (≈ 1.1 µM) | 248 to 251 °C | 1.27 ± 0.07 µM | > 100 µg/mL | – | – | – | – | – | – | – | – | – |
